Assay results from patent US20140072657A1, “NOVEL PHARMACEUTICAL FORMULATION” (priority 2011, published 2014).

Key:
[1] = test system: Periodontitis; test: Periodontitis cases: sites with CPITN code 3+4 / code 4 pockets before and after the composition; type: in vivo, human
Source text: As indicator of periodontal status pocket depth is used according to Treatment Need codes 3 and 4 in Community Periodontal Index—Treatment Needs (CPITN). This code is applied to every treated tooth or implant.
Periodontal pockets: shallow (Code 3: 4-5 mrn) and deep (Code 4: 6 mm or more).
(§1) Initial motivation and cleaning instruction, supragingival biofilm reduction by trimestrially repeated brushing in CHX solution 0.07 wt % for two weeks by the patient and tooth and pocket cleaning by ultrasonic scaling as well as covering exposed root dentine by adhesive fillings to hide protein coaggregational binding sites for anaerobic microbial species (A.a., P.g., T.d.) was administered. […]

[2] = test system: Gingivitis, edema, mucosal inflammation; test: Clinical observation of oral inflammation, edema and regeneration (gingivitis, dentition difficilis, healing cap, inflamed extraction socket); type: in vivo, human
Description: as §1

[3] = Case 11, 4000 I.E. systemically 2 months
[4] = cases 10, 11, systemic application over 2 months

C=C1CC[C@H](O)C/C1=C/C=C1\CCC[C@]2(C)[C@@H]([C@H](C)CCCC(C)C)CC[C@@H]12 [vit D3, vitamin D3]
Code 4: severe ([1]; Case 11, 18 sites/3, 4000 I.E. systemically 2 months, before 22): 22
edema [1, 3]: no edema
pocket regeneration code 3 [1, 3]: +33%
sensitivity [1, 3]: no sensitivity,
CPITN Code 3 + 4 Nr. ([1]; Case 11, Periodontitis, Periimplantitis, 18 sites/3, 4000 I.E. systemically 2 months, before 61): 38
edema, inflammation and attachment loss [1, 4]: stop of edema, inflammation and attachment loss
regeneration in code 3 CPITN pockets [1, 4]: some regeneration
edema ([2]; Case 10, 4000 I.E. systemically 2 months): no edema
pockets ([2]; Case 10, Gingivitis, Mc Calls edema, 4000 I.E. systemically 2 months): Shallow pockets,
